{"source": "patent US9868767B2", "about": "“Chemical synthesis and screening of bicyclic peptide libraries” (OHIO STATE INNOVATION FOUNDATION, priority 2013, dated 2018)", "key": {"[1]": {"tested_on": "H1299 lung cancer cells", "test": "MTT proliferation assay", "assay_type": "cell-based", "method": "One hundred μL of H1299 cells (0.5×10^5 cells/mL) were placed in each well of a 96-well culture plate and allowed to grow overnight. […] Ten μL of a MTT stock solution (5 mg/ml) was added into each well. The plate was incubated at 37° C. for 4 h. Then 100 μL of SDS-HCl solubilizing buffer was added into each well, and the resulting solution was mixed thoroughly. The plate was incubated at 37° C. overnight. The absorbance of the formazan product was measured at 570 nm using a Molecular Devices Spectramax M5 plate reader. Cells treated with DMSO were used as control."}, "[2]": {"tested_on": "H358 lung cancer cells", "test": "MTT assay, growth of H358 cells", "assay_type": "cell-based", "method": "FIG. 23a, b show on-bead assay of inhibition of Ras-Raf interaction by cyclorasin B3.\nCyclorasin B2-B4 were tested for inhibition of cell proliferation by the MTT assay."}, "[3]": {"target": "T1, TNFα-TNFR1 interaction (Homo sapiens, UniProt P01375)", "T1 construct": "extracellular domain of human TNFα (aa 77-233); host or cells: E. coli BL21(DE3) (TNFα)", "test": "TNFα-TNFR1 interaction ELISA (HRP-TNFR1, immobilized TNFα)", "conditions": "read-out: IC50, inhibition of TNF-alpha binding to its cognate receptor", "method": "Recombinant TNFR1 was purchased from R&D Systems. EZ-Link Plus activated peroxidase, an amine-reactive form of HRP was purchased from Thermo Scientific. TNFR1 was labeled with HRP by combining 50 μL of TNFR1 (1.0 μM) and 4 μL of HRP […], of Na2CO3 buffer (0.2 M Na2CO3, 0.15 M NaCl, pH 9.0) for 1 h. The resulting TNFR1-HRP conjugate was treated with NaCNBH3 to reduce the resulting Schiff base and quenched with 20 μl of ethanolamine. A Nunc 96F Maxisorp plate was coated overnight with 100 μL of […] Neutravidin (in 50 mM Na2CO3, pH 9.0) at 4° C. The solution was removed and each well was washed with 100 μL of the blocking buffer containing 3% BSA. […] The absorbance at 450 nm was measured and plotted against the peptide concentration and the IC50 value was obtained by curve fitting.\nTNFα signaling begins with the binding of the TNFα trimer to the extracellular domain of TNFR1, triggering the release of the inhibitory protein, silencer of death domains (SODD), from the intracellular domain of TNFR1 (Chen, G and Goeddel, D V. Science, 2002, 296, 1634-1635). […] After washing, the amount of HRP-TNFR1 bound to each well was quantitated by ELISA using 3,3′,5,5′-tetramethylbenzidine (TMB) as HRP substrate, which was converted into 3,3′,5,5′-tetramethylbenzidine diimine by HRP resulting in absorbance at 450 nm (Martin, T L et al. J. Histochem. Cytochem., 1984, 32, 793)."}, "[4]": {"tested_on": "WEHI-13VAR fibroblasts"}, "[5]": {"target": "T2, human TNFα (Homo sapiens, UniProt P01375)", "T2 construct": "extracellular domain of human TNFα (aa 77-233); made in house; host or cells: E. coli BL21(DE3)", "test": "Fluorescence anisotropy (FA) binding to TNFα", "conditions": "resynthesized, FITC-labeled, HPLC-purified peptide"}, "[6]": {"target": "T3, K-Ras (Homo sapiens, UniProt P01116, G12V)", "T3 construct": "GST; made in house", "test": "FA binding to K-Ras (Example 4 DCAI-bearing bicyclic peptides)", "conditions": "FAM- or FITC-labeled peptide; NB = no binding", "description": "To confirm the screening results, four hit sequences (peptides A2, A8, B5 and B8; hereafter named as peptides 1-4) were selected for resynthesis and tested for binding to K-Ras in solution by fluorescence anisotropy. The peptides were synthesized on Rink Amide resin, cleaved, deprotected, and purified by reversed-phase HPLC. Each peptide contains a Lys outside of the bicyclic rings to serve as the point of labeling with an amine-reactive fluorescent dye (FAM-NHS or FITC)."}, "[7]": {"target": "Ras-Raf interaction (Homo sapiens, UniProt P01116)", "test": "Qualitative on-bead assay of Ras-Raf interaction", "assay_type": "binding", "conditions": "10 μM peptide, Texas red-labeled K-Ras, immobilized GST-Raf"}, "[8]": {"target": "K-Ras (Homo sapiens, UniProt P01116)", "test": "FA-based competition assay for binding to K-Ras"}, "[9]": {"target": "GST-FKBP12 fusion protein (Homo sapiens, UniProt P62942)", "test": "FA binding to GST-FKBP12"}, "[10]": {"target": "Ras-GTP (Homo sapiens, UniProt P01116)", "test": "FA binding to K-Ras loaded with GTP"}, "[11]": {"tested_on": "WEHI-13VAR fibroblasts", "conditions": "in the presence of actinomycin-D; Khabar et al.; cited from earlier work"}, "[12]": {"target": "T3, K-Ras", "test": "Competition between labeled peptide 2 and DCAI for K-Ras", "assay_type": "binding"}}, "note": "Entries after “also recorded” stand apart in the source; their conditions may differ. Read-outs that look alike come from different tables or passages of the source. Bridges are numbered along the chain shown (N, C = ends). Primed or numbered codes have the meaning given here. Where no end group is shown, it is not given here. [ ]: non-standard residue; d: D form. trimesoyl″ = trimesic acid scaffold joined by three amide bonds; Nal = naphthylalanine (isomer not specified); pY = N[C@@H](Cc1ccc(OP(=O)(O)O)cc1)C(=O)O; Phg = N[C@H](C(=O)O)c1ccccc1; Pra = C#CC[C@H](N)C(=O)O; dNal = D-naphthylalanine; Dap = NC[C@H](N)C(=O)O"}
{"compound": "bicyclo(Ala-d-Leu-Phe-Arg-d-Asn-Pra-Ile-Asp-K-FNalR4-Dap)-K [Peptide 41]", "values": [{"measurement": "EC50", "setting": "[1]; 24-hour treatment, peptide 0-40 μM, read-out: ED50, anti-proliferative activity", "value": "~9", "unit": "µM"}, {"measurement": "EC50", "setting": "[1]; 72 h, read-out: ED50, cell growth inhibition", "value": "~7", "unit": "µM"}]}
{"compound": "CCCCCCCC/C=C\\CCCCCCCC(=O)NCCCC[C@H](NC(=O)[C@@H]1CNC(=O)c2cc3cc(c2)C(=O)NC(Cc2ccc4ccccc4c2)C(=O)N[C@@H](CO)C(=O)N[C@@H](CCC(N)=O)C(=O)NC(Cc2ccc4ccccc4c2)C(=O)N[C@@H](c2ccccc2)C(=O)N[C@@H](CCCCNC3=O)C(=O)N[C@H](Cc2ccccc2)C(=O)N[C@@H](CCCNC(=N)N)C(=O)N[C@H](C(C)C)C(=O)NC(CCCNC(=N)N)C(=O)N1)C(N)=O", "note": "(some centres unmarked) [oleiylated cyclorasin B3]", "values": [{"measurement": "anti-proliferative activity against H358 lung cancer cells", "setting": "[2]", "value": "modest anti-proliferative activity"}]}
{"compound": "bicyclo(Phg-Tyr-D-Ala-Lys-Tyr-D-Phe-Gly-D-Lys-His-Dap) [Necrostatin C1]", "values": [{"measurement": "IC50", "setting": "[3]", "value": 3.1, "unit": "µM"}, {"measurement": "LD50 of TNFα in the presence of 50 μM Necrostatin C1", "setting": "[4]; TNFα 0-250 ng/mL", "value": 1.8, "unit": "ng/mL"}, {"measurement": "Kd", "setting": "[5]", "value": 0.45, "unit": "µM"}]}
{"compound": "bicyclo(Arg-Asp-Phg-Pra-d-Asn-K-FNalR4-Dap)-K (RD[Phg][Pra][dN]KF[dNal]RRRR[Dap]K-NH2; linker N-6-13 via trimesoyl″ (inferred); not fully specified; printed as bicyclo(Arg-Asp-Phg-Pra-d-Asn-K-FNalR4-Dap)-K) [Peptide 1]", "values": [{"measurement": "KD for K-Ras", "setting": "[6]", "value": "does not bind"}]}
{"compound": "Orn-Arg-nal-Arg-Fpa-Lys-phe-glu-Gly-Dap [Hit 105B]", "values": [{"measurement": "effect on Ras-Raf interaction (bead staining)", "setting": "[7]", "value": "completely abolished"}, {"measurement": "inhibition of binding of (FITC-labeled) cyclorasin B4 to K-Ras", "setting": "[8]", "value": "inhibited the binding of FITC-labeled B4 to K-Ras"}]}
{"compound": "Bicyclo(Arg-Arg-Arg-Arg-Nal-Phe-Dap-S er-D-Val-Pro-pTyr-His-Dap) (RRRR[Nal]F[Dap]S[dV]P[pY]H[Dap]; linker N-7-13 via trimesic acid (inferred)) [control bicyclic peptide, control peptide arbitrarily selected from another library (unrelated to TNFα), reference compound]", "values": [{"measurement": "protection of cells from TNFα-induced cell death", "setting": "[4]; TNFα 0.04 ng/mL, peptide 0-25 μM, actinomycin D", "value": "no protective effect"}, {"measurement": "KD for TNFα", "setting": "[5]", "value": "no detectable binding"}]}
{"compound": "nal-Ser-Gln-nal-Phg-Lys-phe-Arg-val-Arg-Dap [Hit 82]", "values": [{"measurement": "effect on Ras-Raf interaction (bead staining)", "setting": "[7]; listed as cyclorasin B3", "value": "completely abolished; also recorded: abolished Ras-Raf interaction"}, {"measurement": "binding to GST-FKBP12", "setting": "[9]", "value": "very weakly"}, {"measurement": "fold higher affinity for Ras-GTP and Ras-GPPNP than Ras-GDP", "setting": "[10]", "value": "approximately 8 fold"}]}
{"compound": "TNFα: Tumor necrosis factor-alpha, cytokine used to induce cell death", "values": [{"measurement": "LD50 of TNFα in the absence of TNFα inhibitor", "setting": "[4]; TNFα 0-250 ng/mL", "value": 0.46, "unit": "ng/mL"}, {"measurement": "LD50 range of TNFα", "setting": "[11]", "value": "0.005 to 0.065", "unit": "ng/mL"}]}
{"compound": "Cc1[nH]c2cc(Cl)cc(Cl)c2c1CCN", "note": "[DCAI, 4,6-dichloro-2-methyl-3-aminoethyl-indole]", "values": [{"measurement": "IC50", "setting": "[12]", "value": 1400, "unit": "µM"}]}
